Measured values published in the supplement of paper PMC10307832.

Key:
Assay in all cases: relative viability (nuclei count vs DMSO), 5 days (fraction); higher = more cells survive
NCI-H2126 = test system: NCI-H2126
Outline: (§1)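 Relative viability was taken as the ratio of nuclei in treated wells to nuclei in vehicle wells. Lung cancer cell lines in 1536-well plates received compounds by pin tool one day after seeding, either one drug alone or a fixed anchor-drug dose plus five library-drug doses (not always all listed) in √10 steps. Nuclei were counted on 4× images after 5 days of treatment, and values are medians of duplicate plates.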

NCI-H1666 = test system: NCI-H1666
Outline: as §1

NCI-H322M = test system: NCI-H322M
Outline: as §1

NCI-H2085 = test system: NCI-H2085
Outline: as §1

UMC-11 = test system: UMC-11
Outline: as §1

EMC-BAC-2 = test system: EMC-BAC-2
Outline: as §1

HCC-78 = test system: HCC-78
Outline: as §1

NCI-H1755 = test system: NCI-H1755
Outline: as §1

NCI-H2023 = test system: NCI-H2023
Outline: as §1

NCI-H1975 = test system: NCI-H1975
Outline: as §1

EPLC-272H = test system: EPLC-272H
Outline: as §1

LXF-289 = test system: LXF-289
Outline: as §1

NCI-H3122 = test system: NCI-H3122
Outline: as §1

ChaGo-K-1 = test system: ChaGo-K-1
Outline: as §1

NCI-H358 = test system: NCI-H358
Outline: as §1

NCI-H1993 = test system: NCI-H1993
Outline: as §1

CAL-12T = test system: CAL-12T
Outline: as §1

ABC-1 = test system: ABC-1
Outline: as §1

NCI-H1915 = test system: NCI-H1915
Outline: as §1

HOP-62 = test system: HOP-62
Outline: as §1

COR-L 105 = test system: COR-L 105
Outline: as §1

NCI-H441 = test system: NCI-H441
Outline: as §1

HCC-15 = test system: HCC-15
Outline: as §1

Work on `COc1cc(N2CCC(C(N)=O)CC2)ccc1Nc1nc(N)c(Cl)c(Nc2ccccc2S(=O)(=O)C(C)C)n1` [HG-5-88-01] + CS(=O)(=O)N1CCN(Cc2cc3nc(-c4cccc5[nH]ncc45)nc(N4CCOCC4)c3s2)CC1 [Pictilisib] (partner 1 µM) yielded a relative viability (NCI-H2126; first compound 0.04 µM) of 0.419, a relative viability (NCI-H2126; first compound 0.1265 µM) of 0.435 and a relative viability (NCI-H2126; first compound 0.4 µM) of 0.513. The relative viability (NCI-H2126; first compound 1.265 µM) was 0.501, the relative viability (NCI-H2126; first compound 4 µM) was 0.38 and the relative viability (NCI-H1666; first compound 0.04 µM) was 0.503. It also gave a relative viability (NCI-H1666; first compound 0.1265 µM) of 0.43, a relative viability (NCI-H1666; first compound 0.4 µM) of 0.467 and a relative viability (NCI-H1666; first compound 1.265 µM) of 0.476. It also gave a relative viability (NCI-H1666; first compound 4 µM) of 0.34, a relative viability (NCI-H322M; first compound 0.04 µM) of 0.461 and a relative viability (NCI-H322M; first compound 0.1265 µM) of 0.471. For the same compound, the relative viability (NCI-H322M; first compound 0.4 µM) was 0.512, the relative viability (NCI-H322M; first compound 1.265 µM) was 0.441 and the relative viability (NCI-H322M; first compound 4 µM) was 0.449. For the same compound, the relative viability (NCI-H2085; first compound 0.04 µM) was 0.478, the relative viability (NCI-H2085; first compound 0.1265 µM) was 0.457 and the relative viability (NCI-H2085; first compound 0.4 µM) was 0.525. The relative viability (NCI-H2085; first compound 1.265 µM) was 0.414, the relative viability (NCI-H2085; first compound 4 µM) was 0.442 and the relative viability (UMC-11; first compound 0.04 µM) was 0.506. For the same compound, the relative viability (UMC-11; first compound 0.1265 µM) was 0.937, the relative viability (UMC-11; first compound 0.4 µM) was 0.692 and the relative viability (UMC-11; first compound 1.265 µM) was 0.815. For the same compound, the relative viability (UMC-11; first compound 4 µM) was 0.49, the relative viability (EMC-BAC-2; first compound 0.04 µM) was 0.531 and the relative viability (EMC-BAC-2; first compound 0.1265 µM) was 0.509. For the same compound, the relative viability (EMC-BAC-2; first compound 0.4 µM) was 0.495, the relative viability (EMC-BAC-2; first compound 1.265 µM) was 0.554 and the relative viability (EMC-BAC-2; first compound 4 µM) was 0.505. It also gave a relative viability (HCC-78; first compound 0.04 µM) of 0.204, a relative viability (HCC-78; first compound 0.1265 µM) of 0.19 and a relative viability (HCC-78; first compound 0.4 µM) of 0.153. The relative viability (HCC-78; first compound 1.265 µM) was 0.167, the relative viability (HCC-78; first compound 4 µM) was 0.157 and the relative viability (NCI-H1755; first compound 0.1265 µM) was 0.508. It also gave a relative viability (NCI-H1755; first compound 0.4 µM) of 0.438, a relative viability (NCI-H1755; first compound 1.265 µM) of 0.53 and a relative viability (NCI-H1755; first compound 4 µM) of 0.399. It also gave a relative viability (NCI-H2023; first compound 0.04 µM) of 0.222, a relative viability (NCI-H2023; first compound 0.1265 µM) of 0.245 and a relative viability (NCI-H2023; first compound 0.4 µM) of 0.16. For the same compound, the relative viability (NCI-H2023; first compound 1.265 µM) was 0.159, the relative viability (NCI-H2023; first compound 4 µM) was 0.171 and the relative viability (NCI-H1975; first compound 0.04 µM) was 0.32. The relative viability (NCI-H1975; first compound 0.1265 µM) was 0.277, the relative viability (NCI-H1975; first compound 0.4 µM) was 0.244 and the relative viability (NCI-H1975; first compound 1.265 µM) was 0.191. For the same compound, the relative viability (NCI-H1975; first compound 4 µM) was 0.17, the relative viability (EPLC-272H; first compound 0.04 µM) was 0.302 and the relative viability (EPLC-272H; first compound 0.1265 µM) was 0.262. For the same compound, the relative viability (EPLC-272H; first compound 0.4 µM) was 0.29, the relative viability (EPLC-272H; first compound 1.265 µM) was 0.219 and the relative viability (EPLC-272H; first compound 4 µM) was 0.0916. The relative viability (LXF-289; first compound 0.04 µM) was 0.819, the relative viability (LXF-289; first compound 0.1265 µM) was 0.796 and the relative viability (LXF-289; first compound 0.4 µM) was 0.821. The relative viability (LXF-289; first compound 1.265 µM) was 0.81, the relative viability (LXF-289; first compound 4 µM) was 0.736 and the relative viability (NCI-H3122; first compound 0.04 µM) was 0.252. It also gave a relative viability (NCI-H3122; first compound 0.1265 µM) of 0.174, a relative viability (NCI-H3122; first compound 0.4 µM) of 0.2 and a relative viability (NCI-H3122; first compound 1.265 µM) of 0.172. For the same compound, the relative viability (NCI-H3122; first compound 4 µM) was 0.173, the relative viability (ChaGo-K-1; first compound 0.04 µM) was 0.794 and the relative viability (ChaGo-K-1; first compound 0.1265 µM) was 0.785. For the same compound, the relative viability (ChaGo-K-1; first compound 0.4 µM) was 0.679, the relative viability (ChaGo-K-1; first compound 1.265 µM) was 0.863 and the relative viability (ChaGo-K-1; first compound 4 µM) was 0.556. It also gave a relative viability (NCI-H358; first compound 0.04 µM) of 0.292, a relative viability (NCI-H358; first compound 0.1265 µM) of 0.384 and a relative viability (NCI-H358; first compound 0.4 µM) of 0.302. For the same compound, the relative viability (NCI-H358; first compound 1.265 µM) was 0.225, the relative viability (NCI-H358; first compound 4 µM) was 0.301 and the relative viability (NCI-H1993; first compound 0.04 µM) was 0.689. The relative viability (NCI-H1993; first compound 0.1265 µM) was 0.829, the relative viability (NCI-H1993; first compound 0.4 µM) was 0.606 and the relative viability (NCI-H1993; first compound 1.265 µM) was 1.04. For the same compound, the relative viability (NCI-H1993; first compound 4 µM) was 0.873, the relative viability (CAL-12T; first compound 0.04 µM) was 0.321 and the relative viability (CAL-12T; first compound 0.1265 µM) was 0.354. It also gave a relative viability (CAL-12T; first compound 0.4 µM) of 0.418, a relative viability (CAL-12T; first compound 1.265 µM) of 0.296 and a relative viability (CAL-12T; first compound 4 µM) of 0.227. The relative viability (ABC-1; first compound 0.04 µM) was 0.614, the relative viability (ABC-1; first compound 0.1265 µM) was 0.829 and the relative viability (ABC-1; first compound 0.4 µM) was 0.679. The relative viability (ABC-1; first compound 1.265 µM) was 0.681, the relative viability (ABC-1; first compound 4 µM) was 0.522 and the relative viability (NCI-H1915; first compound 0.04 µM) was 0.92. For the same compound, the relative viability (NCI-H1915; first compound 0.1265 µM) was 0.973, the relative viability (NCI-H1915; first compound 0.4 µM) was 0.95 and the relative viability (NCI-H1915; first compound 1.265 µM) was 1.13. It also gave a relative viability (NCI-H1915; first compound 4 µM) of 0.806, a relative viability (HOP-62; first compound 0.04 µM) of 0.493 and a relative viability (HOP-62; first compound 0.1265 µM) of 0.765. For the same compound, the relative viability (HOP-62; first compound 0.4 µM) was 0.827, the relative viability (HOP-62; first compound 1.265 µM) was 0.892 and the relative viability (HOP-62; first compound 4 µM) was 0.936. For the same compound, the relative viability (COR-L 105; first compound 0.04 µM) was 0.348, the relative viability (COR-L 105; first compound 0.1265 µM) was 0.537 and the relative viability (COR-L 105; first compound 0.4 µM) was 0.336. It also gave a relative viability (COR-L 105; first compound 1.265 µM) of 0.309, a relative viability (COR-L 105; first compound 4 µM) of 0.342 and a relative viability (NCI-H441; first compound 0.04 µM) of 0.435. The relative viability (NCI-H441; first compound 0.1265 µM) was 0.409, the relative viability (NCI-H441; first compound 0.4 µM) was 0.494 and the relative viability (NCI-H441; first compound 1.265 µM) was 0.352. The relative viability (NCI-H441; first compound 4 µM) was 0.536, the relative viability (HCC-15; first compound 0.04 µM) was 0.844 and the relative viability (HCC-15; first compound 0.1265 µM) was 0.831. For the same compound, the relative viability (HCC-15; first compound 0.4 µM) was 0.741, the relative viability (HCC-15; first compound 1.265 µM) was 0.798 and the relative viability (HCC-15; first compound 4 µM) was 0.515.
